According to article PMC7949049 (The Journal of Biological Chemistry, 2020):
Entries after “also recorded” stand apart in the source; their conditions may differ. Positions of bridges follow the written chain, without caps; N, C: chain ends. Non-standard residues stand in square brackets, D forms with d. Residues, ends and D or L forms follow the SMILES beside them. *: point of attachment. 5FAM = O=C1OC2(c3ccc(O)cc3Oc3cc(O)ccc32)c2ccc(C(=O)*)cc21; S5 = C=CCCC[C@](C)(N)C(=O)O

Tests used:
[1] = Circular dichroism, helicity; format: physicochemical; settings: CD 185-260 nm, 0.2 mg/ml peptide in water, 298 K; CDSSTR method, reference set 3, Dichroweb
Procedure: CD spectra were recorded at 1 nm intervals between 260 and 185 nm using an Aviv Model 410 CD spectrometer with a 1 mm path length quartz cuvette at 298 K. Three scans were recorded for each peptide or protein, the data were averaged, and the buffer background was subtracted. RLIP76 RBDs were measured at 0.2 mg/ml in 10 mM phosphate buffer, pH 7.3, and 150 mM NaF, while peptides were measured at 0.2 mg/ml in water. The helical content of each peptide and RBD was determined using the CDSSTR method with reference Set 3 and DichroWeb ([59], [60], [61]).

Cdc42 = molecular target: T1, Cdc42 (Homo sapiens, UniProt P60953, Q61L); assay: Direct-binding fluorescence polarization, Cdc42; settings: 20 nM FAM-labelled non-solubilized peptide; n ≥ 2; ± standard error from curve fitting; read-out: Kd Cdc42, FP (Table S1)
T1 construct: Cdc42 (pGEX-2T, 1–184, Q61L); GST (cleaved yes); made in house
Procedure: (§1) FP experiments were performed on a BMG Labtech Pherastar fluorimeter at 298 K with excitation at 485 nm and emission at 520 nm as described previously ([34]), using 20 nM FAM-labeled peptide. Plates were read after 30 min incubation at room temperature. Data were fitted to a single-site binding model using nonlinear regression analysis in GraphPad prism 8.4 to obtain Kd values and their standard errors.

[2] = Solubility in aqueous solution (observation); format: physicochemical; settings: qualitative
RhoA·GMPPNP = molecular target: T2, RhoA·GMPPNP (Homo sapiens, UniProt P61586, F25N/Q63L); assay: Direct-binding fluorescence polarization, RhoA; settings: 20 nM FAM-labelled non-solubilized peptide; n ≥ 2; ± standard error from curve fitting; read-out: Kd RhoA, FP (Table S1)
T2 construct: RhoA (pGEX-2T, 1–186, F25N/Q63L); GST (cleaved yes); made in house
Procedure: as §1

cells = settings: confocal microscopy of FAM-labeled peptide; cited from earlier work
Source text: It has been shown previously that stapled peptides need to form an amphipathic helix in order to enter cells ([52]), and the amphipathicity of our peptide was disrupted by the inclusion of the so ...

T2 sequence (P61586 1-186 F25N/Q63L): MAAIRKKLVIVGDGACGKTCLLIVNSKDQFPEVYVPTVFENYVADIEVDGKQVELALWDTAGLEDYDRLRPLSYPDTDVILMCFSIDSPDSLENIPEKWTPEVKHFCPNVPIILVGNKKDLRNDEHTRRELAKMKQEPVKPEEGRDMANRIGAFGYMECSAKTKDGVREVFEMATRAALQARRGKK
T1 sequence (P60953 1-184 Q61L, species assumed): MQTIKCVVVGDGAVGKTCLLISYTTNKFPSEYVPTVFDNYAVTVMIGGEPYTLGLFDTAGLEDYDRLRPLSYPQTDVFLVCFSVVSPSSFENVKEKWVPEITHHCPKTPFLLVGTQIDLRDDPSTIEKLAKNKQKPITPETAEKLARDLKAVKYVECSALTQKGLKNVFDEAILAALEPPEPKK

Helicity (%) of peptides [1]	Kd (Cdc42)	Kd (RhoA·GMPPNP)	SMILES	solubility [2]	cell entry (previous work) (cells)
46%			CC[C@H](C)[C@H](NC(=O)[C@H](CCCNC(=N)N)NC(=O)[C@H](CCC(N)=O)NC(=O)[C@H](CCC(=O)O)NC(=O)[C@H](CCC(=O)O)NC(=O)[C@H](Cc1c[nH]c2ccccc12)NC(=O)[C@H](CC(C)C)NC(=O)[C@]1(C)CCCC=CCCC[C@](C)(NC(=O)[C@@H](N)CC(C)C)C(=O)N[C@@H](CCCCN)C(=O)N[C@@H](CCC(=O)O)C(=O)N[C@@H](CCC(=O)O)C(=O)N1)C(=O)N[C@@H](CCCCN)C(=O)N[C@H](C(=O)N[C@@H](C)C(=O)N[C@@H](CCC(=O)O)C(=O)N[C@@H](CCCCN)C(=O)N[C@@H](CCCNC(=N)N)C(=O)N[C@@H](CCCCN)C(=O)N[C@@H](CCCCN)C(=O)N[C@@H](CCCNC(=N)N)C(=O)N[C@@H](CCC(=O)O)C(=O)N[C@@H](C)C(N)=O)[C@@H](C)O [wt-sol] (H-L[S5]KEE[S5]LWEEQRIKTAEKRKKREA-NH2; staple 2-6; N-terminus assumed)		
	13 ± 7.4 µM	0.0338 ± 0.0054 µM	CC[C@H](C)[C@H](NC(=O)[C@H](CCCNC(=N)N)NC(=O)[C@H](CCC(N)=O)NC(=O)[C@@H](NC(=O)[C@H](CCC(=O)O)NC(=O)[C@H](Cc1c[nH]c2ccccc12)NC(=O)[C@H](CC(C)C)NC(=O)[C@]1(C)CCCC=CCCC[C@](C)(NC(=O)[C@H](CC(C)C)NC(=O)c2ccc3c(c2)C(=O)OC32c3ccc(O)cc3Oc3cc(O)ccc32)C(=O)N[C@@H](CCCCN)C(=O)N[C@@H](CCC(=O)O)C(=O)N[C@@H](CCC(=O)O)C(=O)N1)C(C)C)C(=O)N[C@@H](CC(C)C)C(=O)N[C@H](C(=O)N[C@@H](C)C(=O)N[C@@H](CC(C)C)C(=O)N[C@@H](CCCCN)C(=O)N[C@@H](CCCNC(=N)N)C(=O)N[C@@H](CCCCN)C(=O)N[C@@H](CC(C)C)C(=O)N[C@@H](CCCNC(=N)N)C(=O)N[C@@H](CCC(=O)O)C(=O)N[C@@H](C)C(N)=O)[C@@H](C)O [SP1] (5FAM-L[S5]KEE[S5]LWEVQRILTALKRKLREA-NH2; staple 2-6)	poor solubility; also recorded: poorly soluble	able to enter cells
